The results in this text go back to patent US20080176936A1, “Classes of Compounds that Interact with Integrins” (priority 2005, published 2008).

One test has as its target T1, αVβ3 integrin (Homo sapiens, UniProt P05106+P06756).
T1 construct: the cell line WM-115 was used as a source of αVβ3 integrin; endogenous in cells; host or cells: WM-115 cell line
The test can be described thus: ELISA: inhibition of binding of αVβ3 integrin (source WM-115 cell line) to coated extracellular matrix protein. The note with it: WM-115 cell line as integrin source. In short, it runs like this:
(§1)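 Integrin sources were human platelet membrane preparations for αIIbβ3 and WM-115 cells for αVβ3, each preincubated with test compound. Binding to fibrinogen- or vitronectin-coated plates (10 µg/well) was quantified with an anti-integrin β3 antibody and an HRP-coupled secondary antibody using colorimetric detection.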
(In general: ELISA stands for enzyme-linked immunosorbent assay.)

The target in a further test is T2, αllbβ3 integrin (Homo sapiens, UniProt P05106+P08514).
T2 construct: Human platelet membrane preparations were used as a source of αllbβ3 integrin; from tissue; host or cells: human platelets (membrane preparation)
The test can be described thus: ELISA: inhibition of binding of αllbβ3 integrin membrane preparation to coated extracellular matrix protein. The note with it: human platelet membrane preparation. In short, it runs like this:
as §1

T2 sequence (P08514 32-887 limits assumed): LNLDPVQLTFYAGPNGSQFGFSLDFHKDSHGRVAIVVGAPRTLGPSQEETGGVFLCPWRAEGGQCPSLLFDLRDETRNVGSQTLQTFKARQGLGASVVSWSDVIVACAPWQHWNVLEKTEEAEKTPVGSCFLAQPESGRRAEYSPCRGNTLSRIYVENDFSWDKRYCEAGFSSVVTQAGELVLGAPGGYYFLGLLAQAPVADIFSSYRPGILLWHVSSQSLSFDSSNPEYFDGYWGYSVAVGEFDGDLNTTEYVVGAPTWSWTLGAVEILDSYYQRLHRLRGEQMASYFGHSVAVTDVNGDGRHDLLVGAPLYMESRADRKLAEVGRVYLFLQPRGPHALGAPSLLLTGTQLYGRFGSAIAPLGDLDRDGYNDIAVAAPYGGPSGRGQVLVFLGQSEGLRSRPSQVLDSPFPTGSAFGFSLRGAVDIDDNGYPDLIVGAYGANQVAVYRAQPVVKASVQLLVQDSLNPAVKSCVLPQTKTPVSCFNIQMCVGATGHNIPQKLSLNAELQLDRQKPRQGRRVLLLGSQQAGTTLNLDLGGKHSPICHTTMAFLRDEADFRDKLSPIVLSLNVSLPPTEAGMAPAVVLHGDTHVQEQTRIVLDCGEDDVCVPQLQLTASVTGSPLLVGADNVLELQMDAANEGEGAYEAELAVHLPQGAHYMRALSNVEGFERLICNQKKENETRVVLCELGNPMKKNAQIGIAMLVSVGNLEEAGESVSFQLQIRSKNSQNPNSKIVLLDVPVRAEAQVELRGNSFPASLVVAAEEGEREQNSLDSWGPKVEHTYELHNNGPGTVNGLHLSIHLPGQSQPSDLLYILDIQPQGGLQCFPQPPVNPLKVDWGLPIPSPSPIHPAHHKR
T2 sequence (P08514 891-1039 partner limits assumed): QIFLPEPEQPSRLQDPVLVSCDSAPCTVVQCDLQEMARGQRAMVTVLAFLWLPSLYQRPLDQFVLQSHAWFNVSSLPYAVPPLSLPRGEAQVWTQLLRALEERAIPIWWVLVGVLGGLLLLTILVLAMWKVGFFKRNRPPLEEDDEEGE
T2 sequence (P05106 27-788): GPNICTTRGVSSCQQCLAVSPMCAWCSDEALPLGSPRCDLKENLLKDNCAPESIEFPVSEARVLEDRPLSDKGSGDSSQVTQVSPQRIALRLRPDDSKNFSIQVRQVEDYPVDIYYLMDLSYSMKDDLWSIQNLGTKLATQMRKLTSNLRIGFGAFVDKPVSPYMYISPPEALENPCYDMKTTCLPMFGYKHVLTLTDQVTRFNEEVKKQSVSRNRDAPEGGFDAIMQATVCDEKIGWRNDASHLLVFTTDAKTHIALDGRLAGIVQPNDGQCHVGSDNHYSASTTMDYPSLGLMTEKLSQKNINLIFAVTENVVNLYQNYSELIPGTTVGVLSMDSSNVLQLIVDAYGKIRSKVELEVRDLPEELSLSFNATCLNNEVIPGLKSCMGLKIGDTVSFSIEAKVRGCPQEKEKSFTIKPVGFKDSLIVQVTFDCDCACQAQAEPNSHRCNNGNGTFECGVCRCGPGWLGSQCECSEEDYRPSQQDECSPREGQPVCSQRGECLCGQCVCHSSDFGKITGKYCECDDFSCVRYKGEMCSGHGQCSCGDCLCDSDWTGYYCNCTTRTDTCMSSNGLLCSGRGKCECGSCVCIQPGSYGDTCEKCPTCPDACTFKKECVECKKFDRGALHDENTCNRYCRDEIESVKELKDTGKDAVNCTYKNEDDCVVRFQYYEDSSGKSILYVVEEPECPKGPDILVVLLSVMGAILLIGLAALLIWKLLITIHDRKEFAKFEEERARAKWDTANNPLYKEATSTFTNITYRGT
T1 sequence (P06756 31-889 limits assumed): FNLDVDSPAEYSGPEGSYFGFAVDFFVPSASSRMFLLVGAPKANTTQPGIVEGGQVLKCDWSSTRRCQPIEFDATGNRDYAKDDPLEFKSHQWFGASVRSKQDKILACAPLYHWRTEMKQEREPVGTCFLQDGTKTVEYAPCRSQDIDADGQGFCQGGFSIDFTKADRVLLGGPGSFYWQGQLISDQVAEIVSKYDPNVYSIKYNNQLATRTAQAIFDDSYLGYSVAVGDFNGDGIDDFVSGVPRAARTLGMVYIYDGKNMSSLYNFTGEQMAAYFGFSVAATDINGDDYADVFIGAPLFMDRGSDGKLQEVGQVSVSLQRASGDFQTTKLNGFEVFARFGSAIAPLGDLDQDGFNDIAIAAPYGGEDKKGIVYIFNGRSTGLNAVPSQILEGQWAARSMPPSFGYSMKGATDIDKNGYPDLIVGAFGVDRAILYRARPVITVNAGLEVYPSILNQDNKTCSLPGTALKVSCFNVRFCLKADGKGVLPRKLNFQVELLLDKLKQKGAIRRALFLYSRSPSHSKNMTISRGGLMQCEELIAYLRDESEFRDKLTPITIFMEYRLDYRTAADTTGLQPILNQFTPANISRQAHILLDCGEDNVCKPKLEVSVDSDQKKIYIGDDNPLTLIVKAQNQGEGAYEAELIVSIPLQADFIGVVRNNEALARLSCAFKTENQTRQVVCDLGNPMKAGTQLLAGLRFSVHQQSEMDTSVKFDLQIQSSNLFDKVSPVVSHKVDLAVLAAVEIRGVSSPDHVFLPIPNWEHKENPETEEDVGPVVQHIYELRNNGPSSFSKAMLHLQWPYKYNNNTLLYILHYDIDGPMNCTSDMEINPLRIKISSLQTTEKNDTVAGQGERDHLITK
T1 sequence (P06756 891-1048 partner limits assumed): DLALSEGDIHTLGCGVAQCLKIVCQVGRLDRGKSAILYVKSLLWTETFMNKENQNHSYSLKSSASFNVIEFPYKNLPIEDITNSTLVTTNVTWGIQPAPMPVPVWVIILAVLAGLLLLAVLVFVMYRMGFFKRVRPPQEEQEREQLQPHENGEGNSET
T1 sequence (P05106 27-788): as the sequence (P05106 27-788) above

`CCOC1C(O)C(COCC(=O)O)OC(OCc2ccccc2)C1NC(=O)c1cccc(N)c1` (single isomer, unassigned) [Compound 84]: on αVβ3 integrin, the “INHIBITION 250 uM RECEPTOR aVb3 SUBSTRATE FIBRINOGEN” value is recorded as “− (0% to 35% inhibition at 250 micromolar)”. Besides, at αllbβ3 integrin, the “INHIBITION @ 250 uM RECEPTOR allBb3 SUBSTRATE FIBRINOGEN” value is “− (0% to 35% inhibition at 250 micromolar)” and the “INHIBITION 250 uM RECEPTOR allBb3 SUBSTRATE VITRONECTIN” value is listed as “− (0% to 35% inhibition at 250 micromolar)”.

Regarding `Nc1cccc(COC2C(O)C(COCc3ccccc3)OC(O)C2NC(=O)CCC(=O)O)c1` (single isomer, unassigned) [Compound 23], the “INHIBITION 250 uM RECEPTOR aVb3 SUBSTRATE FIBRINOGEN” value at αVβ3 integrin is given as “− (0% to 35% inhibition at 250 micromolar)”. Further, on αllbβ3 integrin, the “INHIBITION @ 250 uM RECEPTOR allBb3 SUBSTRATE FIBRINOGEN” value is reported as “++ (61% to 80% inhibition at 250 micromolar)” and the “INHIBITION 250 uM RECEPTOR allBb3 SUBSTRATE VITRONECTIN” value is reported as “+++ (81% to 100% inhibition at 250 micromolar)”.

As to `CCOC1O[C@H](COCc2ccccc2)[C@@H](O)[C@H](OCc2ccc(C(=O)O)cc2)[C@H]1NC(=O)CCNC(=N)N` (single isomer, unassigned) [Compound 57], the “INHIBITION 250 uM RECEPTOR aVb3 SUBSTRATE FIBRINOGEN” value at αVβ3 integrin was “+++ (81% to 100% inhibition at 250 micromolar)”. Besides, at αllbβ3 integrin, the “INHIBITION @ 250 uM RECEPTOR allBb3 SUBSTRATE FIBRINOGEN” value is reported as “− (0% to 35% inhibition at 250 micromolar)” and the “INHIBITION 250 uM RECEPTOR allBb3 SUBSTRATE VITRONECTIN” value was “+++ (81% to 100% inhibition at 250 micromolar)”.

With `Nc1cccc(COC2C(O)C(COCc3ccccc3)OC(O)C2NC(=O)c2ccc(C(=O)O)cc2)c1` (single isomer, unassigned) [Compound 70], on αVβ3 integrin, the “INHIBITION 250 uM RECEPTOR aVb3 SUBSTRATE FIBRINOGEN” value is given as “+++ (81% to 100% inhibition at 250 micromolar)”. Further, at αllbβ3 integrin, the “INHIBITION @ 250 uM RECEPTOR allBb3 SUBSTRATE FIBRINOGEN” value was “+ (36% to 60% inhibition at 250 micromolar)” and the “INHIBITION 250 uM RECEPTOR allBb3 SUBSTRATE VITRONECTIN” value is “+++ (81% to 100% inhibition at 250 micromolar)”.

Take `CCOCC1OC(OCc2ccccc2)C(NC(=O)c2ccc(C(=O)O)cc2)C(OCc2cccc(N)c2)C1O` (single isomer, unassigned) [Compound 107]: on αVβ3 integrin, the “INHIBITION 250 uM RECEPTOR aVb3 SUBSTRATE FIBRINOGEN” value is “− (0% to 35% inhibition at 250 micromolar)”. Also, on αllbβ3 integrin, the “INHIBITION @ 250 uM RECEPTOR allBb3 SUBSTRATE FIBRINOGEN” value was “− (0% to 35% inhibition at 250 micromolar)” and the “INHIBITION 250 uM RECEPTOR allBb3 SUBSTRATE VITRONECTIN” value was “+++ (81% to 100% inhibition at 250 micromolar)”.

Take `COC1OC(COCc2ccccc2)C(O)C(OCc2cccc(N)c2)C1NC(=O)CCC(=O)O` (single isomer, unassigned) [Compound 21]: the “INHIBITION 250 uM RECEPTOR aVb3 SUBSTRATE FIBRINOGEN” value on αVβ3 integrin was “+++ (81% to 100% inhibition at 250 micromolar)”. Further, on αllbβ3 integrin, the “INHIBITION @ 250 uM RECEPTOR allBb3 SUBSTRATE FIBRINOGEN” value is “+++ (81% to 100% inhibition at 250 micromolar)”.

In the case of `COCC1OC(OCc2ccccc2)C(NC(=O)CCNC(=N)N)C(OCc2ccc(C(=O)O)cc2)C1O` (single isomer, unassigned) [Compound 98], at αVβ3 integrin, the “INHIBITION 250 uM RECEPTOR aVb3 SUBSTRATE FIBRINOGEN” value is reported as “− (0% to 35% inhibition at 250 micromolar)”. At αllbβ3 integrin, the “INHIBITION @ 250 uM RECEPTOR allBb3 SUBSTRATE FIBRINOGEN” value is “− (0% to 35% inhibition at 250 micromolar)” and the “INHIBITION 250 uM RECEPTOR allBb3 SUBSTRATE VITRONECTIN” value was “+++ (81% to 100% inhibition at 250 micromolar)”.

In the case of `CCOC1O[C@H](COCc2ccc(C(=O)O)cc2)[C@@H](O)[C@H](OCc2ccc(Br)cc2)[C@H]1NC(=O)c1cccc(N)c1` (single isomer, unassigned) [Compound 40], the “INHIBITION 250 uM RECEPTOR aVb3 SUBSTRATE FIBRINOGEN” value at αVβ3 integrin was “+++ (81% to 100% inhibition at 250 micromolar)”. For the same compound, on αllbβ3 integrin, the “INHIBITION @ 250 uM RECEPTOR allBb3 SUBSTRATE FIBRINOGEN” value is given as “+++ (81% to 100% inhibition at 250 micromolar)” and the “INHIBITION 250 uM RECEPTOR allBb3 SUBSTRATE VITRONECTIN” value is given as “+++ (81% to 100% inhibition at 250 micromolar)”.

Turning to `CCC(=O)NC1C(OCc2ccccc2)OC(COCC(=O)O)C(O)C1OCc1cccc(N)c1` (single isomer, unassigned) [Compound 110], at αVβ3 integrin, the “INHIBITION 250 uM RECEPTOR aVb3 SUBSTRATE FIBRINOGEN” value is “− (0% to 35% inhibition at 250 micromolar)”. For the same compound, at αllbβ3 integrin, the “INHIBITION @ 250 uM RECEPTOR allBb3 SUBSTRATE FIBRINOGEN” value was “− (0% to 35% inhibition at 250 micromolar)” and the “INHIBITION 250 uM RECEPTOR allBb3 SUBSTRATE VITRONECTIN” value is on record as “+++ (81% to 100% inhibition at 250 micromolar)”.
